Earlier results in US4375464A, “Antibiotic AY24,668 and process of preparation” (Ayerst, McKenna & Harrison Inc., priority 1981, dated 1983).

What was measured:
[1] = R. R. Martel et al., Can. J. Physiol., 55, 48 (1977)
Candida albicans [2] = tested on: Candida albicans
Candida albicans [3] = tested on: Candida albicans; remark: listed apart in the source

CO[C@H]1C[C@@H]2CC[C@@H](C)[C@@](O)(O2)C(=O)C(=O)N2CCCC[C@H]2C(=O)O[C@H]([C@H](C)C[C@@H]2CC[C@@H](O)[C@H](OC)C2)CC(=O)[C@H](C)/C=C(\C)[C@@H](O)[C@@H](OC)C(=O)[C@H](C)C[C@H](C)/C=C/C=C/C=C/1C [rapamycin]
immunosuppressant activity [1]: immunosuppressant activity | effectiveness against Candida albicans in vivo (Candida albicans [2]): particularly effective | effectiveness against Candida albicans in vitro (Candida albicans [3]): particularly effective
